Results reported in patent publication US10323022B2, “Pyrrolidinyl urea, pyrrolidinyl thiourea and pyrrolidinyl guanidine compounds as TrkA kinase inhibitors” (Array BioPharma Inc., priority 2011, dated 2019).
pIC50: −log10 of the molar value.

biological target: TrkA (Homo sapiens (Human), UniProt P04629); test: TrkA Omnia Assay; type: biochemical; details: averaged IC50; 20 nM enzyme, 500 μM ATP, 10 μM peptide substrate
How it was run: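 Recombinant TrkA (20 nM) preincubated 10 min at ambient temperature with compound, then Omnia Tyr Peptide #4 (10 μM) and ATP (500 μM) added in 25 mM MOPS pH 7.5, 5 mM MgCl2, 0.005% Triton X-100. Fluorescence (ex 360/em 485 nm) followed continuously for 70 min; IC50 from initial rates by 4- or 5-parameter logistic fit.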

TrkA, sequence (P04629 33-796): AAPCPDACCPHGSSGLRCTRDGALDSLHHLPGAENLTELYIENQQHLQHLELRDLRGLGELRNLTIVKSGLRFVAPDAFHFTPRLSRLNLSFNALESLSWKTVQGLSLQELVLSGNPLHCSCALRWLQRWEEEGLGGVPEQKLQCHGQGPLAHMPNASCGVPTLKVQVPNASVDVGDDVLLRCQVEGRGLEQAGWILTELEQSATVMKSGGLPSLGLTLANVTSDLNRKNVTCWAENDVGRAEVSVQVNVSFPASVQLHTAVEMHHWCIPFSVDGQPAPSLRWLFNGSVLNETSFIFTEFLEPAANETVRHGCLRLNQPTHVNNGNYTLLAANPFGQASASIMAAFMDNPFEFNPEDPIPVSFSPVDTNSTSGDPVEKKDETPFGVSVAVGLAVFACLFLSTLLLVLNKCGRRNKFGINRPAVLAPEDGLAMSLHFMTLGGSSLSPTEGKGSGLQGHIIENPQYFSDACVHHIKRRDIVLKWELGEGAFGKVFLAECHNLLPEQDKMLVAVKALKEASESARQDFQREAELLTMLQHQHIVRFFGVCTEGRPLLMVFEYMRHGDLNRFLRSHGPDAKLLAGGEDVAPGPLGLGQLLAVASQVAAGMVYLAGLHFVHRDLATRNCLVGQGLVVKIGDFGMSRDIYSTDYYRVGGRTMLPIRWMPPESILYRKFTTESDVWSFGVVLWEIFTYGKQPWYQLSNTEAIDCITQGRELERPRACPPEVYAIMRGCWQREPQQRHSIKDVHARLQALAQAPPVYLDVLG

Structure (SMILES) | pIC50
COCCN1C[C@@H](NC(=O)Nc2c(C)c(-c3cnn(C)n3)nn2-c2ccccc2)[C@H](c2ccc(F)c(F)c2)C1 [Example 351, 1-((3S,4R)-4-(3,4-difluorophenyl)-1-(2-methoxyethyl)pyrrolidin-3-yl)-3-(4-methyl-3-(2-methyl-2H-1,2,3-triazol-4-yl)-1-phenyl-1H-pyrazol-5-yl)urea] | > 7.00
COCCN1C[C@@H](NC(=O)Nc2c(C)c(Br)nn2-c2ccccc2)[C@H](c2ccc(F)c(F)c2)C1 [Example 352, 1-(3-bromo-4-methyl-1-phenyl-1H-pyrazol-5-yl)-3-((3S,4R)-4-(3,4-difluorophenyl)-1-(2-methoxyethyl)pyrrolidin-3-yl)urea] | > 7.00
COCCN1C[C@@H](NC(=O)Nc2c3c(nn2-c2ccccc2)C(=O)N(C)C3)[C@H](c2ccc(F)c(F)c2)C1 [Example 353, 1-((3S,4R)-4-(3,4-difluorophenyl)-1-(2-methoxyethyl)pyrrolidin-3-yl)-3-(5-methyl-6-oxo-2-phenyl-2,4,5,6-tetrahydropyrrolo[3,4-c]pyrazol-3-yl)urea] | 6.00 to 7.00
COCCN1C[C@@H](NC(=O)Nc2c(C)c(OCc3nnc(C)o3)nn2-c2ccccc2)[C@H](c2ccc(F)c(F)c2)C1 [Example 355, 1-((3S,4R)-4-(3,4-difluorophenyl)-1-(2-methoxyethyl)pyrrolidin-3-yl)-3-(4-methyl-3-((5-methyl-1,3,4-oxadiazol-2-yl)methoxy)-1-phenyl-1H-pyrazol-5-yl)urea] | > 7.00
CCOc1nn(-c2ccccc2)c(NC(=O)N[C@@H]2CN(CCOC)C[C@H]2c2ccc(F)c(F)c2)c1Cl [Example 356, 1-(4-chloro-3-ethoxy-1-phenyl-1H-pyrazol-5-yl)-3-((3S,4R)-4-(3,4-difluorophenyl)-1-(2-methoxyethyl)pyrrolidin-3-yl)urea] | > 7.00
CCOc1nn(-c2ccccc2)c(NC(=O)N[C@@H]2CN(CCOC)C[C@H]2c2ccc(F)c(F)c2)c1F [Example 357, 1-((3S,4R)-4-(3,4-difluorophenyl)-1-(2-methoxyethyl)pyrrolidin-3-yl)-3-(3-ethoxy-4-fluoro-1-phenyl-1H-pyrazol-5-yl)urea] | > 7.00
COCCN1C[C@@H](NC(=O)Nc2c(Br)c(OCC(C)(C)O)nn2-c2ccccc2)[C@H](c2ccc(F)c(F)c2)C1 [Example 358, 1-(4-bromo-3-(2-hydroxy-2-methylpropoxy)-1-phenyl-1H-pyrazol-5-yl)-3-((3S,4R)-4-(3,4-difluorophenyl)-1-(2-methoxyethyl)pyrrolidin-3-yl)urea] | > 7.00
COCCN1C[C@@H](NC(=O)Nc2c(Cl)c(OCC(C)(C)O)nn2-c2ccccc2)[C@H](c2ccc(F)c(F)c2)C1 [Example 359, 1-(4-chloro-3-(2-hydroxy-2-methylpropoxy)-1-phenyl-1H-pyrazol-5-yl)-3-((3S,4R)-4-(3,4-difluorophenyl)-1-(2-methoxyethyl)pyrrolidin-3-yl)urea] | > 7.00
CC[C@H](O)COc1nn(-c2ccccc2)c(NC(=O)N[C@@H]2CN(CCOC)C[C@H]2c2ccc(F)c(F)c2)c1C [Example 360, 1-((3S,4R)-4-(3,4-difluorophenyl)-1-(2-methoxyethyl)pyrrolidin-3-yl)-3-(3-((S)-2-hydroxybutoxy)-4-methyl-1-phenyl-1H-pyrazol-5-yl)urea] | > 7.00
CCOC(=O)COc1nn(-c2ccccc2)c(NC(=O)N[C@@H]2CN(CCOC)C[C@H]2c2ccc(F)c(F)c2)c1C [Example 361, ethyl 2-((5-(3-((3S,4R)-4-(3,4-difluorophenyl)-1-(2-methoxyethyl)pyrrolidin-3-yl)ureido)-4-methyl-1-phenyl-1H-pyrazol-3-yl)oxy)acetate] | > 7.00
COCCN1C[C@@H](NC(=O)Nc2c(C)c(OCC(C)(C)O)nn2-c2ccccc2)[C@H](c2ccc(F)cc2)C1 [Example 362, 1-((3S,4R)-4-(4-fluorophenyl)-1-(2-methoxyethyl)pyrrolidin-3-yl)-3-(3-(2-hydroxy-2-methylpropoxy)-4-methyl-1-phenyl-1H-pyrazol-5-yl)urea] | > 7.00
COCCN1C[C@@H](NC(=O)Nc2c(C)c(OC[C@@H](C)O)nn2-c2ccccc2)[C@H](c2ccc(F)cc2)C1 [Example 364, 1-((3S,4R)-4-(4-fluorophenyl)-1-(2-methoxyethyl)pyrrolidin-3-yl)-3-(3-((R)-2-hydroxypropoxy)-4-methyl-1-phenyl-1H-pyrazol-5-yl)urea] | > 7.00
COCCN1C[C@@H](NC(=O)Nc2c(C)c(OC[C@@H](C)O)nn2-c2ccccc2)[C@H](c2ccc(F)c(F)c2)C1 [Example 365, 1-((3S,4R)-4-(3,4-difluorophenyl)-1-(2-methoxyethyl)pyrrolidin-3-yl)-3-(3-((R)-2-hydroxypropoxy)-4-methyl-1-phenyl-1H-pyrazol-5-yl)urea] | > 7.00
CC[C@@H](O)COc1nn(-c2ccccc2)c(NC(=O)N[C@@H]2CN(CCOC)C[C@H]2c2cc(F)cc(F)c2)c1C [Example 378, 1-((3S,4R)-4-(3,5-difluorophenyl)-1-(2-methoxyethyl)pyrrolidin-3-yl)-3-(3-((R)-2-hydroxybutoxy)-4-methyl-1-phenyl-1H-pyrazol-5-yl)urea] | > 7.00
CC[C@@H](O)COc1nn(-c2ccccc2)c(NC(=O)N[C@@H]2CN(CCOC)C[C@H]2c2ccc(F)cc2)c1C [Example 379, 1-((3S,4R)-4-(4-fluorophenyl)-1-(2-methoxyethyl)pyrrolidin-3-yl)-3-(3-((R)-2-hydroxybutoxy)-4-methyl-1-phenyl-1H-pyrazol-5-yl)urea] | > 7.00

Now from value to molecule:

pIC50 | Structure (SMILES)
> 7.00 | COCCN1C[C@@H](NC(=O)Nc2c(C)c(OC[C@@H](C)O)nn2-c2ccccc2)[C@H](c2cc(F)cc(F)c2)C1 [Example 366, 1-((3S,4R)-4-(3,5-difluorophenyl)-1-(2-methoxyethyl)pyrrolidin-3-yl)-3-(3-((R)-2-hydroxypropoxy)-4-methyl-1-phenyl-1H-pyrazol-5-yl)urea]
> 7.00 | COCCN1C[C@@H](NC(=O)Nc2c(C)c(OC[C@@H](O)C(F)(F)F)nn2-c2ccccc2)[C@H](c2cc(F)cc(F)c2)C1 [Example 367, 1-((3S,4R)-4-(3,5-difluorophenyl)-1-(2-methoxyethyl)pyrrolidin-3-yl)-3-(4-methyl-1-phenyl-3-((R)-3,3,3-trifluoro-2-hydroxypropoxy)-1H-pyrazol-5-yl)urea]
> 7.00 | COCCN1C[C@@H](NC(=O)Nc2c(C)c(OC[C@H](C)O)nn2-c2ccccc2)[C@H](c2ccc(F)cc2)C1 [Example 368, 1-((3S,4R)-4-(4-fluorophenyl)-1-(2-methoxyethyl)pyrrolidin-3-yl)-3-(3-((S)-2-hydroxypropoxy)-4-methyl-1-phenyl-1H-pyrazol-5-yl)urea]
> 7.00 | COCCN1C[C@@H](NC(=O)Nc2c(C)c(OC[C@H](O)C(F)(F)F)nn2-c2ccccc2)[C@H](c2cc(F)cc(F)c2)C1 [Example 369, 1-((3S,4R)-4-(3,5-difluorophenyl)-1-(2-methoxyethyl)pyrrolidin-3-yl)-3-(4-methyl-1-phenyl-3-((S)-3,3,3-trifluoro-2-hydroxypropoxy)-1H-pyrazol-5-yl)urea]
> 7.00 | COCCN1C[C@@H](NC(=O)Nc2c(Cl)c(OCC(C)(C)O)nn2-c2ccccc2)[C@H](c2cc(F)cc(F)c2)C1 [Example 370, 1-(4-chloro-3-(2-hydroxy-2-methylpropoxy)-1-phenyl-1H-pyrazol-5-yl)-3-((3S,4R)-4-(3,5-difluorophenyl)-1-(2-methoxyethyl)pyrrolidin-3-yl)urea]
> 7.00 | COCCN1C[C@@H](NC(=O)Nc2c(Cl)c(OCC(C)(C)O)nn2-c2ccccc2)[C@H](c2ccc(F)cc2)C1 [Example 371, 1-(4-chloro-3-(2-hydroxy-2-methylpropoxy)-1-phenyl-1H-pyrazol-5-yl)-3-((3S,4R)-4-(4-fluorophenyl)-1-(2-methoxyethyl)pyrrolidin-3-yl)urea]
> 7.00 | COCCN1C[C@@H](NC(=O)Nc2c(Cl)c(OC[C@@H](C)O)nn2-c2ccccc2)[C@H](c2ccc(F)c(F)c2)C1 [Example 372, 1-(4-chloro-3-((R)-2-hydroxypropoxy)-1-phenyl-1H-pyrazol-5-yl)-3-((3S,4R)-4-(3,4-difluorophenyl)-1-(2-methoxyethyl)pyrrolidin-3-yl)urea]
> 7.00 | COCCN1C[C@@H](NC(=O)Nc2c(Cl)c(OC[C@@H](C)O)nn2-c2ccccc2)[C@H](c2cc(F)cc(F)c2)C1 [Example 373, 1-(4-chloro-3-((R)-2-hydroxypropoxy)-1-phenyl-1H-pyrazol-5-yl)-3-((3S,4R)-4-(3,5-difluorophenyl)-1-(2-methoxyethyl)pyrrolidin-3-yl)urea]
> 7.00 | COCCN1C[C@@H](NC(=O)Nc2c(Cl)c(OC[C@@H](C)O)nn2-c2ccccc2)[C@H](c2ccc(F)cc2)C1 [Example 374, 1-(4-chloro-3-((R)-2-hydroxypropoxy)-1-phenyl-1H-pyrazol-5-yl)-3-((3S,4R)-4-(4-fluorophenyl)-1-(2-methoxyethyl)pyrrolidin-3-yl)urea]
> 7.00 | COCCN1C[C@@H](NC(=O)Nc2c(Br)c(OC[C@@H](C)O)nn2-c2ccccc2)[C@H](c2ccc(F)c(F)c2)C1 [Example 375, 1-(4-bromo-3-((R)-2-hydroxypropoxy)-1-phenyl-1H-pyrazol-5-yl)-3-((3S,4R)-4-(3,4-difluorophenyl)-1-(2-methoxyethyl)pyrrolidin-3-yl)urea]
> 7.00 | COCCN1C[C@@H](NC(=O)Nc2c(Br)c(OC[C@@H](C)O)nn2-c2ccccc2)[C@H](c2cc(F)cc(F)c2)C1 [Example 376, 1-(4-bromo-3-((R)-2-hydroxypropoxy)-1-phenyl-1H-pyrazol-5-yl)-3-((3S,4R)-4-(3,5-difluorophenyl)-1-(2-methoxyethyl)pyrrolidin-3-yl)urea]
> 7.00 | COCCN1C[C@@H](NC(=O)Nc2c(Br)c(OC[C@@H](C)O)nn2-c2ccccc2)[C@H](c2ccc(F)cc2)C1 [Example 377, 1-(4-bromo-3-((R)-2-hydroxypropoxy)-1-phenyl-1H-pyrazol-5-yl)-3-((3S,4R)-4-(4-fluorophenyl)-1-(2-methoxyethyl)pyrrolidin-3-yl)urea]
